Test results: article PMC9403976, “Elucidating the path to Plasmodium prolyl-tRNA synthetase inhibitors that overcome halofuginone resistance” (Nature Communications, 2022)
“And” between values parts separate entries of the source, which are not always exact repeats. Equal entries are not always repeated. Where two headings read alike, the source gives them in different places.

Key:
[1] = test system: HFGR-I P. falciparum (elevated proline homeostasis and PfcProRS^L482H); test: P. falciparum ABS growth assay, SYBR Green, 72 h, HFGR-I parasites; format: cell-based, Plasmodium falciparum; conditions: HFGR-I
Method in brief: (§1)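 Growth inhibition of the resistant and induced Dd2 lines is measured over 72 h in triplicate dose-response, starting at 1% parasitemia and 1% hematocrit. SYBR Green 1 staining gives the fluorescence readout, normalized between 10 μM dihydroartemisinin and no-compound wells.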

[2] = target: HsProRS (Homo sapiens, UniProt P07814); test: TR-FRET ligand displacement assay with tracer MAT379 (CoraFluor-1-Halo and anti-His6 antibody formats); format: binding; design: made in house; host or cells: E. coli SoluBL-21; conditions: for normalized TR-FRET signal (dose-response replicates): SI Fig 17a
HsProRS, sequence (P07814 996-1512): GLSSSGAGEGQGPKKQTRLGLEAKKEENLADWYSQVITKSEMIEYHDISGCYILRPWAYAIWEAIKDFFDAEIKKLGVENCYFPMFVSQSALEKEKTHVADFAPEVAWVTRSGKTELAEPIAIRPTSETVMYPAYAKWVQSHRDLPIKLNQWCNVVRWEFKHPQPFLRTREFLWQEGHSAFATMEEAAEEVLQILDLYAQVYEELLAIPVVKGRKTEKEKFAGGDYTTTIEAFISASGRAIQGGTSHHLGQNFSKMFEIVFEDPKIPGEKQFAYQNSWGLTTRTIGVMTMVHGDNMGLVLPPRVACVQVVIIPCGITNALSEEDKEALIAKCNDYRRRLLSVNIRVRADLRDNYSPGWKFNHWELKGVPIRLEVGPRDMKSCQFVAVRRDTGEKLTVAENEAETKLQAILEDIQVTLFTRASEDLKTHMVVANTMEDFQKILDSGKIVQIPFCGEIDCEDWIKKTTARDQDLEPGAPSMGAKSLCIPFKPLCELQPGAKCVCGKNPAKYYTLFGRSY

[3] = test system: halofuginone-induced P. falciparum (elevated proline homeostasis); test: P. falciparum ABS growth assay, SYBR Green, 72 h, halofuginone-induced parasites; format: cell-based, Plasmodium falciparum; conditions: for parasite growth, dose-response point: Halofuginone-Induced (HFG-Induced)
Method in brief: as §1

[4] = test system: P. falciparum Dd2-2D4; test: P. falciparum asexual blood stage (ABS) growth assay, SYBR Green, 72 h, wild-type parasites; format: cell-based, Plasmodium falciparum; conditions: Plasmodium falciparum, DD2; SI Fig 16b; values on -log scale; read-out: ABS - Dd2-2D4 (converted)
[5] = target: T1, PfcProRS (Plasmodium falciparum, UniProt Q8I5R7); format: binding; conditions: for Normalized response, dose-response replicates (SI Fig 14): replicates 1-3, listed as MAT345 (30)
T1 construct: made in house; host or cells: E. coli SoluBL-21
T1 sequence (Q8I5R7 249-746): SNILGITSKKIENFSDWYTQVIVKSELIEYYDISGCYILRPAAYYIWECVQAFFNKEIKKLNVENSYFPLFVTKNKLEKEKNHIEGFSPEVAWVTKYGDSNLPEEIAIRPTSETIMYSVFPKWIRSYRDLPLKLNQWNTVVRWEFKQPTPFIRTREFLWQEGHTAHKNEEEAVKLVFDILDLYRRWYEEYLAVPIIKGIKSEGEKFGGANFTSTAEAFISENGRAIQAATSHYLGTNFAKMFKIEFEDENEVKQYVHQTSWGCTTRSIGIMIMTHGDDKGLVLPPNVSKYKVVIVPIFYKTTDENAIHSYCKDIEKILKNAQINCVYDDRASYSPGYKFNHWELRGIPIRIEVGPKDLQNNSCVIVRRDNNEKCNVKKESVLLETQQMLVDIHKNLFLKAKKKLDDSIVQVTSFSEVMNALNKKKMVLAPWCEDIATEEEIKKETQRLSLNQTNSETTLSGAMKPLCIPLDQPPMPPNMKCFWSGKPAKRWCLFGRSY

[6] = Log[inhibitor] (M) -5.000, series r16-r27

## O=C(NC1Cc2ccccc2C1)c1nccnc1NC(=O)N1CCC(CNC(=O)[C@@H]2CCCN2)CC1 [MAT345]
[1]; [6]
  parasite growth, dose-response point: 34 and 31 and 27
[1]; Log[inhibitor] (M) -5.408
  parasite growth, dose-response point: 80 and 82 and 78
[1]; Log[inhibitor] (M) -5.816
  parasite growth, dose-response point: 93 and 92 and 94
[1]; Log[inhibitor] (M) -6.222
  parasite growth, dose-response point: 97 and 95
[1]; Log[inhibitor] (M) -6.638
  parasite growth, dose-response point: 101 and 98 and 100
[1]; Log[inhibitor] (M) -7.046
  parasite growth, dose-response point: 98 and 100
[1]; Log[inhibitor] (M) -7.450
  parasite growth, dose-response point: 89 and 95 and 94
[1]; Log[inhibitor] (M) -7.854
  parasite growth, dose-response point: 93 and 91 and 94
[1]; Log[inhibitor] (M) -8.260
  parasite growth, dose-response point: 90 and 93 and 96
[1]; Log[inhibitor] (M) -8.699
  parasite growth, dose-response point: 97 and 94 and 92
[1]; Log[inhibitor] (M) -9.000
  parasite growth, dose-response point: 97 and 96 and 95
[1]; Log[inhibitor] (M) -9.488
  parasite growth, dose-response point: 95 and 102 and 96
[2]; HsProRS (KD [nM]) + proline, 100 μM proline, 250 nM MAT379
  Kd: 282 nM
[2]; HsProRS - best Kd, SI Fig 16a, values on -log scale
  Kd: 140 nM
[2]; Log[inhibitor] (M) -5.642
  normalised signal, dose-response point (Fig 4d): 3.24E-02 and 2.70E-02 and 2.05E-02
  normalized TR-FRET signal (dose-response replicates): 9.59E-02 and 6.70E-02 and 9.33E-02
[2]; Log[inhibitor] (M) -6.244
  normalised signal, dose-response point (Fig 4d): 1.89E-01 and 2.26E-01 and 2.85E-01
  normalized TR-FRET signal (dose-response replicates): 2.09E-01 and 2.42E-01 and 2.50E-01
[2]; Log[inhibitor] (M) -6.555
  normalised signal, dose-response point (Fig 4d): 3.68E-01 and 3.01E-01 and 3.10E-01
  normalized TR-FRET signal (dose-response replicates): 3.66E-01 and 3.52E-01 and 3.76E-01
[2]; Log[inhibitor] (M) -6.837
  normalised signal, dose-response point (Fig 4d): 6.02E-01 and 6.04E-01 and 4.91E-01
  normalized TR-FRET signal (dose-response replicates): 5.21E-01 and 5.37E-01 and 4.85E-01
[2]; Log[inhibitor] (M) -7.149
  normalised signal, dose-response point (Fig 4d): 6.76E-01 and 6.99E-01 and 6.39E-01
  normalized TR-FRET signal (dose-response replicates): 7.07E-01 and 6.82E-01 and 6.73E-01
[2]; Log[inhibitor] (M) -7.447
  normalised signal, dose-response point (Fig 4d): 8.48E-01 and 8.28E-01 and 9.00E-01
  normalized TR-FRET signal (dose-response replicates): 7.81E-01 and 8.42E-01 and 8.20E-01
[2]; Log[inhibitor] (M) -7.755
  normalised signal, dose-response point (Fig 4d): 9.14E-01 and 8.69E-01 and 1.05E+00
  normalized TR-FRET signal (dose-response replicates): 9.07E-01 and 9.27E-01 and 8.91E-01
[2]; Log[inhibitor] (M) -8.041
  normalised signal, dose-response point (Fig 4d): 9.90E-01 and 1.01E+00 and 9.87E-01
  normalized TR-FRET signal (dose-response replicates): 9.57E-01 and 9.29E-01 and 9.81E-01
[2]; Log[inhibitor] (M) -8.372
  normalised signal, dose-response point (Fig 4d): 1.02E+00 and 1.03E+00 and 9.36E-01
  normalized TR-FRET signal (dose-response replicates): 9.20E-01 and 9.69E-01 and 9.64E-01
[2]; Log[inhibitor] (M) -8.615
  normalised signal, dose-response point (Fig 4d): 9.70E-01 and 1.01E+00 and 1.11E+00
  normalized TR-FRET signal (dose-response replicates): 9.77E-01 and 1.00E+00 and 1.02E+00
[2]; Log[inhibitor] (M) -8.916
  normalised signal, dose-response point (Fig 4d): 9.07E-01 and 1.05E+00 and 9.01E-01
  normalized TR-FRET signal (dose-response replicates): 9.89E-01 and 9.48E-01 and 9.78E-01
[2]; Log[inhibitor] (M) -9.217
  normalised signal, dose-response point (Fig 4d): 9.78E-01 and 9.88E-01 and 9.92E-01
  normalized TR-FRET signal (dose-response replicates): 1.04E+00 (2×) and 1.05E+00
[2]; Log[inhibitor] (M) -5.041
  normalized TR-FRET signal (dose-response replicates): 4.56E-02 and 1.07E-02 and 1.68E-02
[2]; Log[inhibitor] (M) -5.342
  normalized TR-FRET signal (dose-response replicates): 5.17E-02 and 5.07E-02 and 8.15E-02
[2]; Log[inhibitor] (M) -5.943
  normalized TR-FRET signal (dose-response replicates): 1.49E-01 and 1.16E-01 and 1.17E-01
[3]; [6]
  parasite growth, dose-response point: 31 and 33
[3]; Log[inhibitor] (M) -5.408
  parasite growth, dose-response point: 83 and 82 and 78
[3]; Log[inhibitor] (M) -5.816
  parasite growth, dose-response point: 97 and 93 and 100
[3]; Log[inhibitor] (M) -6.222
  parasite growth, dose-response point: 102 and 100
[3]; Log[inhibitor] (M) -6.638
  parasite growth, dose-response point: 103 and 100 and 98
[3]; Log[inhibitor] (M) -7.046
  parasite growth, dose-response point: 102 and 103
[3]; Log[inhibitor] (M) -7.450
  parasite growth, dose-response point: 91 and 97
[3]; Log[inhibitor] (M) -7.854
  parasite growth, dose-response point: 96 and 99
[3]; Log[inhibitor] (M) -8.260
  parasite growth, dose-response point: 97 and 101
[3]; Log[inhibitor] (M) -8.699
  parasite growth, dose-response point: 95 and 97 and 96
[3]; Log[inhibitor] (M) -9.000
  parasite growth, dose-response point: 98 and 96
[3]; Log[inhibitor] (M) -9.488
  parasite growth, dose-response point: 97 and 99
[3]; vs wild-type Dd2-2D4
  fold decreased activity in halofuginone-induced and HFGR-I parasites: 20-to-40 fold
[4]
  EC50: 249 nM
[5]; Log[inhibitor] (M) -5.041
  Normalized response, dose-response replicates (SI Fig 14): 4.37E-03 and 8.51E-02 and 8.45E-02
[5]; Log[inhibitor] (M) -5.342
  Normalized response, dose-response replicates (SI Fig 14): 1.11E-01 and 8.97E-02 and 2.09E-01
[5]; Log[inhibitor] (M) -5.642
  Normalized response, dose-response replicates (SI Fig 14): 2.13E-01 and 1.76E-01 and 2.03E-01
[5]; Log[inhibitor] (M) -5.943
  Normalized response, dose-response replicates (SI Fig 14): 2.11E-01 and 3.53E-01 and 2.89E-01
[5]; Log[inhibitor] (M) -6.244
  Normalized response, dose-response replicates (SI Fig 14): 5.69E-01 and 4.73E-01 and 4.91E-01
[5]; Log[inhibitor] (M) -6.555
  Normalized response, dose-response replicates (SI Fig 14): 6.49E-01 and 6.64E-01 and 6.15E-01
[5]; Log[inhibitor] (M) -6.837
  Normalized response, dose-response replicates (SI Fig 14): 7.67E-01 and 7.12E-01 and 8.75E-01
[5]; Log[inhibitor] (M) -7.149
  Normalized response, dose-response replicates (SI Fig 14): 8.93E-01 and 9.71E-01 and 9.69E-01
[5]; Log[inhibitor] (M) -7.447
  Normalized response, dose-response replicates (SI Fig 14): 1.04E+00 and 1.05E+00 and 9.75E-01
[5]; Log[inhibitor] (M) -7.755
  Normalized response, dose-response replicates (SI Fig 14): 9.28E-01 and 9.14E-01 and 8.72E-01
[5]; Log[inhibitor] (M) -8.041
  Normalized response, dose-response replicates (SI Fig 14): 1.06E+00 and 9.79E-01 and 1.02E+00
[5]; Log[inhibitor] (M) -8.372
  Normalized response, dose-response replicates (SI Fig 14): 9.49E-01 and 9.57E-01 and 1.06E+00
[5]; Log[inhibitor] (M) -8.615
  Normalized response, dose-response replicates (SI Fig 14): 1.07E+00 and 9.05E-01 and 1.02E+00
[5]; Log[inhibitor] (M) -8.916
  Normalized response, dose-response replicates (SI Fig 14): 1.03E+00 and 9.82E-01 and 1.08E+00
[5]; Log[inhibitor] (M) -9.217
  Normalized response, dose-response replicates (SI Fig 14): 9.85E-01 and 1.06E+00 and 9.97E-01
[5]; SI Fig 16a, values on -log scale
  PfcProRS -- best Kd: 7.445
